Laboratory results as given in patent US9340590B2 (priority 2011, dated 2016).
Positions of bridges follow the written chain, without caps; N, C: chain ends. Residues, ends and D or L forms follow the SMILES beside them.

What was measured:
Assay in all cases: cell-based
hNav1.5 = hNav1.5 (Homo sapiens, UniProt Q14524); conditions: IonWorks Quattro, use-dependent block, hNav1.5; read-out: IWQ Use Nav1.5
hNav1.7 = hNav1.7 (Homo sapiens, UniProt Q15858); format: cell-based; conditions: IonWorks Quattro, use-dependent block, hNav1.7; read-out: IWQ Use Nav1.7
hNav1.7, sequence (Q15858 whole entry, looked up): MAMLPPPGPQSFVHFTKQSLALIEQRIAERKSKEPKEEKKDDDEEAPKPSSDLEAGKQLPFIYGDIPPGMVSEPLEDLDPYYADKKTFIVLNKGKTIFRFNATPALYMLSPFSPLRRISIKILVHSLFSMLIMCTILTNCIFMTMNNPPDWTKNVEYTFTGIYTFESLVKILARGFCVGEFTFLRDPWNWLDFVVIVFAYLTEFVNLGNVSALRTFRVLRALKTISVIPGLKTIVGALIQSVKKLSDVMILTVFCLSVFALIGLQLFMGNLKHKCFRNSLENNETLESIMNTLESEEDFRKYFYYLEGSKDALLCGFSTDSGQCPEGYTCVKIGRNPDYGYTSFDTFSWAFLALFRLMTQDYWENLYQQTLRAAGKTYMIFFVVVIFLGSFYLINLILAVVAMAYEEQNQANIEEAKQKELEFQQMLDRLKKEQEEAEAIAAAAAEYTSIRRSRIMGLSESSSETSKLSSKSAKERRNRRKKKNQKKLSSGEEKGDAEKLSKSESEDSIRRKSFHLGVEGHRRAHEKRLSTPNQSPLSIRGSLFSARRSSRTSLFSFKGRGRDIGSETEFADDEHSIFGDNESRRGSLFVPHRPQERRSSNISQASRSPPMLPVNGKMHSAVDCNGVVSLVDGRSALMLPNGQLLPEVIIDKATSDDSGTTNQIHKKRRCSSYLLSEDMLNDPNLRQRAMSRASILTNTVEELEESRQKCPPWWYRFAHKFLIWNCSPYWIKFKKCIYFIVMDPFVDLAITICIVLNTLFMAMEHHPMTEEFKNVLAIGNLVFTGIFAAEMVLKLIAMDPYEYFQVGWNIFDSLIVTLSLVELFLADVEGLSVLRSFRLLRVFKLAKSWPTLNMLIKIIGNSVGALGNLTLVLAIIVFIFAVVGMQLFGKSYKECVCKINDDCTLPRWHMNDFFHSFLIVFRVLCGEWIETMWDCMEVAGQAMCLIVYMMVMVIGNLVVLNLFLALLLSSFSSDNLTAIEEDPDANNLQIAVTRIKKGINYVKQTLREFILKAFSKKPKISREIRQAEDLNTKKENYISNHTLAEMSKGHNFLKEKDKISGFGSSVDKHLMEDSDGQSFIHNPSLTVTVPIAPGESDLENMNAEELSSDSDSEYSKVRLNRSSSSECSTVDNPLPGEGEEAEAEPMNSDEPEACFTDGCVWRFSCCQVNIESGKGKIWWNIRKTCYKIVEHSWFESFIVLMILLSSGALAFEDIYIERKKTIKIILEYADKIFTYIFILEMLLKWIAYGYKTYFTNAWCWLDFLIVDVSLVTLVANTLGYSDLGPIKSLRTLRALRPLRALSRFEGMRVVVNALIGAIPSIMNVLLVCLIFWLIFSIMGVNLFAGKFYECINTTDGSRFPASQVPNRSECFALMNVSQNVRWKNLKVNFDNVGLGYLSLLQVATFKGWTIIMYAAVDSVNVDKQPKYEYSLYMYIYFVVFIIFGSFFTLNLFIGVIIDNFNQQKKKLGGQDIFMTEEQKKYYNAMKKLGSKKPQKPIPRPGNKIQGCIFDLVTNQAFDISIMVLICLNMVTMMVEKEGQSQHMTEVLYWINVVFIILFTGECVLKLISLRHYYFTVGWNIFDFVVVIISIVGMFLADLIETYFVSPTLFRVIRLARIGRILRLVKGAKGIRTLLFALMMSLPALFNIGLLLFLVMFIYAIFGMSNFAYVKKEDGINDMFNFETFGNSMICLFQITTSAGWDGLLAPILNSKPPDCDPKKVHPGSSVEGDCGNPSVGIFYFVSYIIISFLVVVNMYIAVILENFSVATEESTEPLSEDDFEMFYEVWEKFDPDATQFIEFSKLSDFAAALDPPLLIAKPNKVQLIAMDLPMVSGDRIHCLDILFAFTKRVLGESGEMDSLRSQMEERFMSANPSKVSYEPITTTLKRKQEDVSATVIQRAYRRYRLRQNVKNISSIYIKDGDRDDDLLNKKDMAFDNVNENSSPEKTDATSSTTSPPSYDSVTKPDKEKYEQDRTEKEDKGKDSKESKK

hNav1.3 = hNav1.3 (Homo sapiens, UniProt Q9NY46); conditions: IonWorks Quattro, use-dependent block, hNav1.3; read-out: IWQ Use Nav1.3

hNav1.5, sequence (Q14524 whole entry, looked up): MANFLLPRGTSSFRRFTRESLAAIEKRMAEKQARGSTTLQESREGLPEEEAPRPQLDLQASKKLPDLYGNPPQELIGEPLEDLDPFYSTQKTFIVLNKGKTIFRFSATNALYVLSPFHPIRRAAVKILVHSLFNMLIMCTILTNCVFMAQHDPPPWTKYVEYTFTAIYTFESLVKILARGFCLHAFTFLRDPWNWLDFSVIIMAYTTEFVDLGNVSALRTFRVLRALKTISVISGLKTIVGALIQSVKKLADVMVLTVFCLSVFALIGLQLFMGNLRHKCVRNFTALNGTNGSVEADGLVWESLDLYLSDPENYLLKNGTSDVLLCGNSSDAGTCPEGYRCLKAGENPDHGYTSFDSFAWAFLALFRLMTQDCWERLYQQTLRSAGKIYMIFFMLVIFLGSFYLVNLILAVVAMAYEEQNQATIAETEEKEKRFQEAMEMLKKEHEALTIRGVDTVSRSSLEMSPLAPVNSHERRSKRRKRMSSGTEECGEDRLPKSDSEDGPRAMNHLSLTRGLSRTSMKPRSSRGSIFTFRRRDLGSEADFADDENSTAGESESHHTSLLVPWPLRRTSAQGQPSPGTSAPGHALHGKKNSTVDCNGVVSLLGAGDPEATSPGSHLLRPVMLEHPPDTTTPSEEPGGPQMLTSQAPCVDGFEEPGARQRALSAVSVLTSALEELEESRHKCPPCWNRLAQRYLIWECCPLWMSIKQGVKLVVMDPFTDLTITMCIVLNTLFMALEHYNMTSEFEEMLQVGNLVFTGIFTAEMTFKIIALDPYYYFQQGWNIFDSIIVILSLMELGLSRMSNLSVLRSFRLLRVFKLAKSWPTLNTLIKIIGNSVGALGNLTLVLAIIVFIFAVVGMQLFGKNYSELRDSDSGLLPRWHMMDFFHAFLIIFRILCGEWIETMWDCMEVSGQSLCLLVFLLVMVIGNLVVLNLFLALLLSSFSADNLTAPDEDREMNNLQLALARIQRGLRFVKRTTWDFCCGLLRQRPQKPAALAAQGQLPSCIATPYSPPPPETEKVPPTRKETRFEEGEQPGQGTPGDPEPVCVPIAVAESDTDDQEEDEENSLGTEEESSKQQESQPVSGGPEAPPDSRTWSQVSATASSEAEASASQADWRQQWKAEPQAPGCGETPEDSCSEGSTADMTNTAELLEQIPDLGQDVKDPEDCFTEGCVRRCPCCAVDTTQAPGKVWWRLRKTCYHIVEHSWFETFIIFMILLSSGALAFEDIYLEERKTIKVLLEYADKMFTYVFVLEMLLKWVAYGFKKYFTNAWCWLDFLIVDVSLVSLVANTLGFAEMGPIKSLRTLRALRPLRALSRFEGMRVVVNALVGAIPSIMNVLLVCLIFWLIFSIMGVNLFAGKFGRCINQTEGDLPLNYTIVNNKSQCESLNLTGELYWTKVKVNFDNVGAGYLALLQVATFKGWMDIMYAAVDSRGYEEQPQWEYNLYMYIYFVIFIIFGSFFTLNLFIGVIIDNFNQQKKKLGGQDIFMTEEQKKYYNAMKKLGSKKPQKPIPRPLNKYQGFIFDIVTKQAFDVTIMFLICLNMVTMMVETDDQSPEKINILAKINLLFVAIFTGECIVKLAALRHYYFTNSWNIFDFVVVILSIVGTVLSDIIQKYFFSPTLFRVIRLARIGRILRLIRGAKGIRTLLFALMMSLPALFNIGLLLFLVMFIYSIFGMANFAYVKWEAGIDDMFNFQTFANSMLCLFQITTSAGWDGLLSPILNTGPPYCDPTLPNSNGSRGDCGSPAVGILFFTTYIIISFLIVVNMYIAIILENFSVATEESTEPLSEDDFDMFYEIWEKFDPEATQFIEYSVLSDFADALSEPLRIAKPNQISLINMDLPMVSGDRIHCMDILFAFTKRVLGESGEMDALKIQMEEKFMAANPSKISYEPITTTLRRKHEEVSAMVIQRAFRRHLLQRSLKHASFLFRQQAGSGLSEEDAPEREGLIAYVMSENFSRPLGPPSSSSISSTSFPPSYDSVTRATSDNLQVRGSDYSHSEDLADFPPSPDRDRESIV

Row | Structure (SMILES) | IC50 (hNav1.5) | IC50 (hNav1.7) | IC50 (hNav1.3)
1 | CC[C@H](C)[C@@H]1NC(=O)[C@@H]2CSSC[C@@H]3NC(=O)[C@H](C(C)C)NC(=O)[C@H](CC(C)C)NC(=O)[C@H](CC(N)=O)NC(=O)[C@@H]4CCCN4C(=O)[C@H](CCCNC(=N)N)NC(=O)[C@H](CSSC[C@H](NC(=O)[C@@H](N)CC(=O)O)C(=O)N[C@@H](CC(C)C)C(=O)NCC(=O)N[C@@H](C)C(=O)N[C@@H](CC(C)C)C(=O)N[C@@H](CCCNC(=N)N)C(=O)N[C@@H](CCCCN)C(=O)N2)NC(=O)[C@H](CSSC[C@@H](C(=O)N[C@@H](CCCCN)C(=O)N[C@@H](Cc2ccc(O)cc2)C(=O)N[C@H](C(=O)N[C@@H](Cc2ccccc2)C(=O)O)C(C)C)NC(=O)[C@H](Cc2c[nH]c4ccccc24)NC(=O)[C@H](CCCNC(=N)N)NC(=O)[C@H](Cc2c[nH]cn2)NC(=O)[C@H]([C@@H](C)O)NC(=O)[C@H](CCCNC(=N)N)NC(=O)[C@H](CO)NC3=O)NC(=O)[C@H](CCCCN)NC(=O)[C@H](CC(=O)O)NC(=O)[C@H](Cc2ccccc2)NC(=O)[C@H](CC(=O)O)NC(=O)[C@@H]2CCCN2C1=O [compound 863] (H-DCLGALRKCIPDFDKCCRPNLVCSRTHRWCKYVF-OH; disulfide 2-17, 9-23, 16-30) | > 5 µM | > 5 µM | > 5 µM
2 | CC[C@H](C)[C@@H]1NC(=O)[C@@H]2CSSC[C@@H]3NC(=O)[C@H](C(C)C)NC(=O)[C@H](CC(C)C)NC(=O)[C@H](CC(N)=O)NC(=O)[C@@H]4CCCN4C(=O)[C@H](CCCNC(=N)N)NC(=O)[C@H](CSSC[C@H](NC(=O)[C@@H](N)CC(=O)O)C(=O)N[C@@H](CC(C)C)C(=O)NCC(=O)N[C@@H](C)C(=O)N[C@@H](CC(C)C)C(=O)N[C@@H](CCCNC(=N)N)C(=O)N[C@@H](CCCCN)C(=O)N2)NC(=O)[C@H](CSSC[C@@H](C(=O)N[C@@H](CCCCN)C(=O)N[C@@H](Cc2ccc(O)cc2)C(=O)N[C@H](C(=O)N[C@@H](Cc2ccccc2)C(=O)O)C(C)C)NC(=O)[C@H](Cc2c[nH]c4ccccc24)NC(=O)[C@H](CCCNC(=N)N)NC(=O)[C@H](Cc2c[nH]cn2)NC(=O)[C@H]([C@@H](C)O)NC(=O)[C@H](CCCNC(=N)N)NC(=O)[C@H](CO)NC3=O)NC(=O)[C@H](CCCCN)NC(=O)[C@H](CC(=O)O)NC(=O)[C@H](Cc2c[nH]cn2)NC(=O)[C@H](CC(=O)O)NC(=O)[C@@H]2CCCN2C1=O [compound 864] (H-DCLGALRKCIPDHDKCCRPNLVCSRTHRWCKYVF-OH; disulfide 2-17, 9-23, 16-30) | > 5 µM | > 5 µM | 3.9 µM
3 | CC[C@H](C)[C@@H]1NC(=O)[C@H](CC(=O)O)NC(=O)[C@@H]2CCCN2C(=O)[C@H]([C@@H](C)CC)NC(=O)[C@@H]2CSSC[C@@H]3NC(=O)[C@H](C(C)C)NC(=O)[C@H](CC(C)C)NC(=O)[C@H](CC(N)=O)NC(=O)[C@@H]4CCCN4C(=O)[C@H](CCCNC(=N)N)NC(=O)[C@H](CSSC[C@H](NC(=O)[C@@H](N)CC(=O)O)C(=O)N[C@@H](CC(C)C)C(=O)NCC(=O)N[C@@H](C)C(=O)N[C@@H](CC(C)C)C(=O)N[C@@H](CCCNC(=N)N)C(=O)N[C@@H](CCCCN)C(=O)N2)NC(=O)[C@H](CSSC[C@@H](C(=O)N[C@@H](CCCCN)C(=O)N[C@@H](Cc2ccc(O)cc2)C(=O)N[C@H](C(=O)N[C@@H](Cc2ccccc2)C(=O)O)C(C)C)NC(=O)[C@H](Cc2c[nH]c4ccccc24)NC(=O)[C@H](CCCNC(=N)N)NC(=O)[C@H](Cc2c[nH]cn2)NC(=O)[C@H]([C@@H](C)O)NC(=O)[C@H](CCCNC(=N)N)NC(=O)[C@H](CO)NC3=O)NC(=O)[C@H](CCCCN)NC(=O)[C@H](CC(=O)O)NC1=O [compound 865] (H-DCLGALRKCIPDIDKCCRPNLVCSRTHRWCKYVF-OH; disulfide 2-17, 9-23, 16-30) | > 5 µM | > 5 µM | > 5 µM
4 | CC[C@H](C)[C@@H]1NC(=O)[C@@H]2CSSC[C@@H]3NC(=O)[C@H](C(C)C)NC(=O)[C@H](CC(C)C)NC(=O)[C@H](CC(N)=O)NC(=O)[C@@H]4CCCN4C(=O)[C@H](CCCNC(=N)N)NC(=O)[C@H](CSSC[C@H](NC(=O)[C@@H](N)CC(=O)O)C(=O)N[C@@H](CC(C)C)C(=O)NCC(=O)N[C@@H](C)C(=O)N[C@@H](CC(C)C)C(=O)N[C@@H](CCCNC(=N)N)C(=O)N[C@@H](CCCCN)C(=O)N2)NC(=O)[C@H](CSSC[C@@H](C(=O)N[C@@H](CCCCN)C(=O)N[C@@H](Cc2ccc(O)cc2)C(=O)N[C@H](C(=O)N[C@@H](Cc2ccccc2)C(=O)O)C(C)C)NC(=O)[C@H](Cc2c[nH]c4ccccc24)NC(=O)[C@H](CCCNC(=N)N)NC(=O)[C@H](Cc2c[nH]cn2)NC(=O)[C@H]([C@@H](C)O)NC(=O)[C@H](CCCNC(=N)N)NC(=O)[C@H](CO)NC3=O)NC(=O)[C@H](CCCCN)NC(=O)[C@H](CC(=O)O)NC(=O)[C@H](CCCCN)NC(=O)[C@H](CC(=O)O)NC(=O)[C@@H]2CCCN2C1=O [compound 866] (H-DCLGALRKCIPDKDKCCRPNLVCSRTHRWCKYVF-OH; disulfide 2-17, 9-23, 16-30) | > 5 µM | > 5 µM | 2.3 µM
5 | CC[C@H](C)[C@@H]1NC(=O)[C@@H]2CSSC[C@@H]3NC(=O)[C@H](C(C)C)NC(=O)[C@H](CC(C)C)NC(=O)[C@H](CC(N)=O)NC(=O)[C@@H]4CCCN4C(=O)[C@H](CCCNC(=N)N)NC(=O)[C@H](CSSC[C@H](NC(=O)[C@@H](N)CC(=O)O)C(=O)N[C@@H](CC(C)C)C(=O)NCC(=O)N[C@@H](C)C(=O)N[C@@H](CC(C)C)C(=O)N[C@@H](CCCNC(=N)N)C(=O)N[C@@H](CCCCN)C(=O)N2)NC(=O)[C@H](CSSC[C@@H](C(=O)N[C@@H](CCCCN)C(=O)N[C@@H](Cc2ccc(O)cc2)C(=O)N[C@H](C(=O)N[C@@H](Cc2ccccc2)C(=O)O)C(C)C)NC(=O)[C@H](Cc2c[nH]c4ccccc24)NC(=O)[C@H](CCCNC(=N)N)NC(=O)[C@H](Cc2c[nH]cn2)NC(=O)[C@H]([C@@H](C)O)NC(=O)[C@H](CCCNC(=N)N)NC(=O)[C@H](CO)NC3=O)NC(=O)[C@H](CCCCN)NC(=O)[C@H](CC(=O)O)NC(=O)[C@H](CC(C)C)NC(=O)[C@H](CC(=O)O)NC(=O)[C@@H]2CCCN2C1=O [compound 867] (H-DCLGALRKCIPDLDKCCRPNLVCSRTHRWCKYVF-OH; disulfide 2-17, 9-23, 16-30) | > 5 µM | > 5 µM | 4.9 µM
6 | CC[C@H](C)[C@@H]1NC(=O)[C@@H]2CSSC[C@@H]3NC(=O)[C@H](C(C)C)NC(=O)[C@H](CC(C)C)NC(=O)[C@H](CC(N)=O)NC(=O)[C@@H]4CCCN4C(=O)[C@H](CCCNC(=N)N)NC(=O)[C@H](CSSC[C@H](NC(=O)[C@@H](N)CC(=O)O)C(=O)N[C@@H](CC(C)C)C(=O)NCC(=O)N[C@@H](C)C(=O)N[C@@H](CC(C)C)C(=O)N[C@@H](CCCNC(=N)N)C(=O)N[C@@H](CCCCN)C(=O)N2)NC(=O)[C@H](CSSC[C@@H](C(=O)N[C@@H](CCCCN)C(=O)N[C@@H](Cc2ccc(O)cc2)C(=O)N[C@H](C(=O)N[C@@H](Cc2ccccc2)C(=O)O)C(C)C)NC(=O)[C@H](Cc2c[nH]c4ccccc24)NC(=O)[C@H](CCCNC(=N)N)NC(=O)[C@H](Cc2c[nH]cn2)NC(=O)[C@H]([C@@H](C)O)NC(=O)[C@H](CCCNC(=N)N)NC(=O)[C@H](CO)NC3=O)NC(=O)[C@H](CCCCN)NC(=O)[C@H](CC(=O)O)NC(=O)[C@H](CCSC)NC(=O)[C@H](CC(=O)O)NC(=O)[C@@H]2CCCN2C1=O [compound 868] (H-DCLGALRKCIPDMDKCCRPNLVCSRTHRWCKYVF-OH; disulfide 2-17, 9-23, 16-30) | > 5 µM | > 5 µM | > 5 µM
7 | CC[C@H](C)[C@@H]1NC(=O)[C@@H]2CSSC[C@@H]3NC(=O)[C@H](C(C)C)NC(=O)[C@H](CC(C)C)NC(=O)[C@H](CC(N)=O)NC(=O)[C@@H]4CCCN4C(=O)[C@H](CCCNC(=N)N)NC(=O)[C@H](CSSC[C@H](NC(=O)[C@@H](N)CC(=O)O)C(=O)N[C@@H](CC(C)C)C(=O)NCC(=O)N[C@@H](C)C(=O)N[C@@H](CC(C)C)C(=O)N[C@@H](CCCNC(=N)N)C(=O)N[C@@H](CCCCN)C(=O)N2)NC(=O)[C@H](CSSC[C@@H](C(=O)N[C@@H](CCCCN)C(=O)N[C@@H](Cc2ccc(O)cc2)C(=O)N[C@H](C(=O)N[C@@H](Cc2ccccc2)C(=O)O)C(C)C)NC(=O)[C@H](Cc2c[nH]c4ccccc24)NC(=O)[C@H](CCCNC(=N)N)NC(=O)[C@H](Cc2c[nH]cn2)NC(=O)[C@H]([C@@H](C)O)NC(=O)[C@H](CCCNC(=N)N)NC(=O)[C@H](CO)NC3=O)NC(=O)[C@H](CCCCN)NC(=O)[C@H](CC(=O)O)NC(=O)[C@H](CCC(N)=O)NC(=O)[C@H](CC(=O)O)NC(=O)[C@@H]2CCCN2C1=O [compound 869] (H-DCLGALRKCIPDQDKCCRPNLVCSRTHRWCKYVF-OH; disulfide 2-17, 9-23, 16-30) | > 5 µM | > 5 µM | > 5 µM
8 | CC[C@H](C)[C@@H]1NC(=O)[C@@H]2CSSC[C@@H]3NC(=O)[C@H](C(C)C)NC(=O)[C@H](CC(C)C)NC(=O)[C@H](CC(N)=O)NC(=O)[C@@H]4CCCN4C(=O)[C@H](CCCNC(=N)N)NC(=O)[C@H](CSSC[C@H](NC(=O)[C@@H](N)CC(=O)O)C(=O)N[C@@H](CC(C)C)C(=O)NCC(=O)N[C@@H](C)C(=O)N[C@@H](CC(C)C)C(=O)N[C@@H](CCCNC(=N)N)C(=O)N[C@@H](CCCCN)C(=O)N2)NC(=O)[C@H](CSSC[C@@H](C(=O)N[C@@H](CCCCN)C(=O)N[C@@H](Cc2ccc(O)cc2)C(=O)N[C@H](C(=O)N[C@@H](Cc2ccccc2)C(=O)O)C(C)C)NC(=O)[C@H](Cc2c[nH]c4ccccc24)NC(=O)[C@H](CCCNC(=N)N)NC(=O)[C@H](Cc2c[nH]cn2)NC(=O)[C@H]([C@@H](C)O)NC(=O)[C@H](CCCNC(=N)N)NC(=O)[C@H](CO)NC3=O)NC(=O)[C@H](CCCCN)NC(=O)[C@H](CC(=O)O)NC(=O)[C@H](CCCNC(=N)N)NC(=O)[C@H](CC(=O)O)NC(=O)[C@@H]2CCCN2C1=O [compound 870] (H-DCLGALRKCIPDRDKCCRPNLVCSRTHRWCKYVF-OH; disulfide 2-17, 9-23, 16-30) | > 5 µM | > 5 µM | 1.4 µM
